Reference: patent US20050267357A1, “fMRI system for detecting symptoms associated with Attention Deficit Hyperactivity Disorder” (priority 2003, published 2005)

System: left insula/frontal operculum of ADHD and control groups
Assay: fMRI during N-Back working memory and sustained attention task, on and off medication
Format: in vivo
Conditions: 1-B, 2-B and 3-B N-Back conditions, 0.2 mg/kg and 0.4 mg/kg MP compared with placebo
Source text: A General Electric Signa EXCITE 3.0 Tesla MRI scanner is used for implementing the present invention although any of a number of commercial MRI scanners having 3.0 or 1.5 Tesla fields could be used. Typical imaging parameters involve, for example, the acquisition of 36 contiguous axial slices that cover the entire brain (typically 4 mm thick) using a blipped gradient-echo, echoplanar pulse sequence (echo time (TE)=25 msec; interscan period (TR)=[…]; field of view (FOV)=24 cm; 64×64 voxel matrix; 3.75 mm.×3.75 mm in-plane resolution). High resolution (124 axial slices) spoiled GRASS (gradient-recalled at steady-state) anatomic images [TE=3.9 ms; TR (repetition time)=9.5 ms, 120 flip angle, NEX (number of excitations)=1, slice thickness=1.0 mm, FOV=24 cm, matrix size=256×224] are acquired prior to functional imaging for anatomical localization of functional activation and co-registration. Stimulus presentation and general communication to the patient in the MR scanner is accomplished with stereo audio headphones and computer generated images fed into a digital LCD projector which are back projected to the subject and viewed by the patient through prismatic glasses. Subject responses are recorded on a small hand held keyboard or response device including multiple response buttons. […]

SMILES: COC(=O)C(c1ccccc1)C1CCCCN1 (stereo not shown) [MP, Methylphenidate]
- Group differences (ADHD vs control) in brain activation (percent MR signal intensity): tended to disappear
